# Laboratory results taken from patent publication US9783536B2, “Nitrogen-containing heterocyclic compound or salt thereof” (FUJIFILM Corporation, priority 2013, dated 2017).
# pIC50: −log10 of the molar value. Structures can show the parent of a compound that is named as a salt.
# Tests used:
# [1] = molecular target: T1, human PI3Kα protein (Homo sapiens, UniProt P42336); experiment: PI3Kα enzyme assay (ADP-Glo); format: biochemical; details: read-out: PI3Kα enzyme inhibitory activity
# T1 construct: purchased Carna Biosciences, Inc; host or cells: baculovirus expression system
# T1 sequence (P42336 whole entry): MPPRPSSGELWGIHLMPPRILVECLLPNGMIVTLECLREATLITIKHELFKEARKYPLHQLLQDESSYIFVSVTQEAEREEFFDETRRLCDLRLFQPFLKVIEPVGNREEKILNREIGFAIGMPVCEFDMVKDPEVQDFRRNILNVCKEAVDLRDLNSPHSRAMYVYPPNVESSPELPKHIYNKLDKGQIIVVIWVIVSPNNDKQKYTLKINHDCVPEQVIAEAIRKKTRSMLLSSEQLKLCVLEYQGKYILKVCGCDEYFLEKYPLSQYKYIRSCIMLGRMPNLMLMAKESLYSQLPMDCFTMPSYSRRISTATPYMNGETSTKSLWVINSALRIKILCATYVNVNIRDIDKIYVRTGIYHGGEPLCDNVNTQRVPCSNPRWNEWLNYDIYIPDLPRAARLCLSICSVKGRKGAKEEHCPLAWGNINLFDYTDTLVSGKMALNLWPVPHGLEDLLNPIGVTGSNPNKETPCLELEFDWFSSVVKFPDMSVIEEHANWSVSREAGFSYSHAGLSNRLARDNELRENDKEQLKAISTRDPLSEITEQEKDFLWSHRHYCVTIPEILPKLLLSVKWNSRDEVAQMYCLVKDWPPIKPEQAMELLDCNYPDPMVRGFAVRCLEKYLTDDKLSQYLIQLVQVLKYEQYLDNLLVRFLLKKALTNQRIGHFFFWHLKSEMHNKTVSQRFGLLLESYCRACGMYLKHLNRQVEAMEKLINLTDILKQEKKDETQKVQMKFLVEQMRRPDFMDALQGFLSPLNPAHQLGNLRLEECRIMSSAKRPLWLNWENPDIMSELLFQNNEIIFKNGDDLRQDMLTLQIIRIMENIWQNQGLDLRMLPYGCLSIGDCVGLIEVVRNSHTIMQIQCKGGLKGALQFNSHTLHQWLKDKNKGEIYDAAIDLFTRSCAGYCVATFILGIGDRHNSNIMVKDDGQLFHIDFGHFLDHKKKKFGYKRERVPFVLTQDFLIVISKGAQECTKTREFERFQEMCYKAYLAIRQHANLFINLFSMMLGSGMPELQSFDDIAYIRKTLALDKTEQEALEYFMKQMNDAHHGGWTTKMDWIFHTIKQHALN
# T1 sequence (P27986 whole entry partner): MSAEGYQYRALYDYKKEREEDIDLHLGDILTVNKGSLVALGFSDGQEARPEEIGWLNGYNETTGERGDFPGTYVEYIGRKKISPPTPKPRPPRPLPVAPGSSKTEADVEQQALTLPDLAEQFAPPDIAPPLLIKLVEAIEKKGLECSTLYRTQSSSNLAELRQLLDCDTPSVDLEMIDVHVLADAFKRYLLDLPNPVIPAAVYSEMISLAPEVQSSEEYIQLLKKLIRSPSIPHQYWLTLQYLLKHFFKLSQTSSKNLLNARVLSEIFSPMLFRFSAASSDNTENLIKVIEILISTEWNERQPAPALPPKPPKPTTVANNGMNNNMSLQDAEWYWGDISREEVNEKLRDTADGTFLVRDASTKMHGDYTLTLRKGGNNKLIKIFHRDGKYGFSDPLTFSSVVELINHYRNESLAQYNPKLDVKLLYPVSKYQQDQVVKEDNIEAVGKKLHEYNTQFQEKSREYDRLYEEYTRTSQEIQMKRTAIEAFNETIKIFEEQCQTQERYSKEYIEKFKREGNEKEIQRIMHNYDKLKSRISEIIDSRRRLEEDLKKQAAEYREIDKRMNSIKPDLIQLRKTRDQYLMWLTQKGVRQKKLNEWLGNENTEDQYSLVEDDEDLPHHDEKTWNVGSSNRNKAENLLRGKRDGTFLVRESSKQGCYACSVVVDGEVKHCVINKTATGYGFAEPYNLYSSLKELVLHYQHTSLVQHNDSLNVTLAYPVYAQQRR
# Summary of the method: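 Biotinylated human PI3Kα (baculovirus-expressed, 4.5 nmol/L) pre-incubated 15 min with compound in Tris-HCl pH 7.5, MgCl2, BSA; reaction 60 min at 25° C with 50 μmol/L PIP2 and 100 μmol/L ATP final. ADP quantified by ADP-Glo luminescence; IC50 calculated.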
# [2] = molecular target: T2, GST fusion human ERK2 protein (Homo sapiens, UniProt P28482); experiment: ERK2 enzyme assay (1); format: biochemical; details: ERK2 enzyme assay (1); read-out: ERK2 enzyme inhibitory activity (1)
# T2 construct: purchased Carna Biosciences, Inc; host or cells: E. coli expression system
# T2 sequence (P28482 whole entry, the tested form may be a part): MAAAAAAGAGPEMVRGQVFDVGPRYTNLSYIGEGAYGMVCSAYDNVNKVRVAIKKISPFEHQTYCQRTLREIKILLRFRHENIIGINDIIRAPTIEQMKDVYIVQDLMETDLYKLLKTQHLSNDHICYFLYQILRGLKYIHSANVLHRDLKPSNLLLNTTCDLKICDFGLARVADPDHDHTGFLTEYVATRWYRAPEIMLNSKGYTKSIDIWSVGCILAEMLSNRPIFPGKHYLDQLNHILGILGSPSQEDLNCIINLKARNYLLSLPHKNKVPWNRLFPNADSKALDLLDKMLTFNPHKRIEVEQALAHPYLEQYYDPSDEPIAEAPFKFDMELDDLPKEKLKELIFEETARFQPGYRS
# Summary of the method: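 IC50 derived from the proportion of phosphorylated 5-FAM peptide, separated from unphosphorylated peptide by microfluidic mobility shift. Compound was first preincubated 15 min at room temperature with 2.5 nmol/L kinase at pH 7.5, then 43.1 μmol/L ATP plus 4.25 μmol/L substrate reacted 120 min at 25 °C.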
pIC50 [1],pIC50 [2],Structure (SMILES)
5.00 to 6.00,> 6.00,OCCNc1cnc2ccc(Nc3nnc(C4CCCC4)s3)nc2c1 [Example 0310]
> 6.00,> 6.00,c1nc2ccc(Nc3nnc(C4CCCC4)s3)nc2cc1NC1CCOCC1 [Example 0312]
5.00 to 6.00,> 6.00,O[C@@H]1CCN(c2cnc3ccc(Nc4nnc(C5CCCC5)s4)nc3c2)C1 [Example 0313]
5.00 to 6.00,> 6.00,O[C@H]1CCN(c2cnc3ccc(Nc4nnc(C5CCCC5)s4)nc3c2)C1 [Example 0314]
5.00 to 6.00,> 6.00,"c1cc(Nc2cnc3ccc(Nc4nnc(C5CCCC5)s4)nc3c2)no1 [Example 0315, N^2-(5-cyclopentyl-1,3,4-thiadiazol-2-yl)-N^7-(isoxazol-3-yl)-1,5-naphthyridine-2,7-diamine]"
> 6.00,> 6.00,"CN(C)CC(C)(C)Cn1cc(-c2cnc3ccc(Nc4nnc(C5CCCC5)s4)nc3c2)cn1 [Example 0317, 5-Cyclopentyl-N-(7-(1-(3-(dimethylamino)-2,2-dimethylpropyl)-1H-pyrazol-4-yl)-1,5-naphthyridin-2-yl)-1,3,4-thiadiazole-2-amine]"
> 6.00,> 6.00,"c1nc2ccc(Nc3nnc(C4CCCC4)s3)nc2cc1NC1CCOC1 (stereo not shown) [Example 0319, N^2-(5-cyclopentyl-1,3,4-thiadiazol-2-yl)-N^7-(tetrahydrofuran-3-yl)-1,5-naphthyridine-2,7-diamine]"
> 6.00,> 6.00,Cc1nnc(Nc2ccc3ncc(-c4cnn(CCCN5CCCC5)c4)cc3n2)s1 [Example 0323]
> 6.00,> 6.00,"c1nc2ccc(Nc3nnc(C4CCCO4)s3)nc2cc1-c1cnn(C2CCNCC2)c1 (stereo not shown) [Example 0324, N-(7-(1-(piperidin-4-yl)-1H-pyrazol-4-yl)-1,5-naphthyridin-2-yl)-5-(tetrahydrofuran-2-yl)-1,3,4-thiadiazole-2-amine]"
> 6.00,> 6.00,"CN(c1cnc2ccc(Nc3nnc(C4CCCC4)s3)nc2c1)C1CCOC1 (stereo not shown) [Example 0326, N^2-(5-cyclopentyl-1,3,4-thiadiazol-2-yl)-N^7-methyl-N^7-(tetrahydrofuran-3-yl)-1,5-naphthyridine-2,7-diamine]"
5.00 to 6.00,> 6.00,"C1=C(c2cnc3ccc(Nc4nnc(C5CCCC5)s4)nc3c2)CCNC1 [Example 0330, 5-cyclopentyl-N-(7-(1,2,3,6-tetrahydropyridin-4-yl)-1,5-naphthyridin-2-yl)-1,3,4-thiadiazole-2-amine hydrochloride]"
4.30 to 5.00,> 6.00,"c1nc2ccc(Nc3nnc(C4CCCC4)s3)nc2cc1C1CCNCC1 [Example 0332, 5-Cyclopentyl-N-(7-(piperidin-4-yl)-1,5-naphthyridin-2-yl)-1,3,4-thiadiazole-2-amine hydrochloride]"
5.00 to 6.00,> 6.00,"CN1CC=C(c2cnc3ccc(Nc4nnc(C5CCCC5)s4)nc3c2)CC1 [Example 0333, 5-cyclopentyl-N-(7-(1-methyl-1,2,3,6-tetrahydropyridin-4-yl)-1,5-naphthyridin-2-yl)-1,3,4-thiadiazole-2-amine]"
> 6.00,> 6.00,"CC(=O)N1CC=C(c2cnc3ccc(Nc4nnc(C5CCCC5)s4)nc3c2)CC1 [Example 0334, 1-(4-(6-((5-cyclopentyl-1,3,4-thiadiazol-2-yl)amino)-1,5-naphthyridin-3-yl)-5,6-dihydropyridine-1(2H)-yl)ethanone]"
4.30 to 5.00,> 6.00,"CC(=O)N1CCC(c2cnc3ccc(Nc4nnc(C5CCCC5)s4)nc3c2)CC1 [Example 0335, 1-(4-(6-((5-Cyclopentyl-1,3,4-thiadiazol-2-yl)amino)-1,5-naphthyridin-3-yl)piperidin-1-yl)ethanone]"
5.00 to 6.00,> 6.00,Cc1cnccc1-c1cnc2ccc(Nc3cc(C(C)C)cnn3)nc2c1 [Example 0361]
> 6.00,> 6.00,CC(C)(C)c1nnc(Nc2ccc3ncc(-c4cnn(CCCN5CCCC5)c4)cc3n2)s1 [Example 0366]
> 6.00,> 6.00,OCCc1nnc(Nc2ccc3ncc(-c4cnn(CCCN5CCCC5)c4)cc3n2)s1 [Example 0367]
5.00 to 6.00,> 6.00,CC(C)c1cnnc(Nc2ccc3ncc(-c4ccccn4)cc3n2)c1 [Example 0369]
> 6.00,> 6.00,CC(C)c1cnnc(Nc2ccc3ncc(-c4cnn(CCCN5CCC5)c4)cc3n2)c1 [Example 0371]
> 6.00,> 6.00,"CC(C)c1cnnc(Nc2ccc3ncc(-c4cnn(Cc5ccccn5)c4)cc3n2)c1 [Example 0375, N-(5-isopropylpyridazin-3-yl)-7-(1-(pyridin-2-ylmethyl)-1H-pyrazol-4-yl)-1,5-naphthyridine-2-amine]"
> 6.00,> 6.00,CC(C)c1cnnc(Nc2ccc3ncc(-c4cnn(Cc5cccnc5)c4)cc3n2)c1 [Example 0376]
> 6.00,> 6.00,CC(C)c1cnnc(Nc2ccc3ncc(-c4cnn(CCc5ccncc5)c4)cc3n2)c1 [Example 0377]
> 6.00,> 6.00,"COC1CCCN(CCCn2cc(-c3cnc4ccc(Nc5cc(C(C)C)cnn5)nc4c3)cn2)C1 (stereo not shown) [Example 0378, N-(5-isopropylpyridazin-3-yl)-7-(1-(3-(3-methoxypiperidin-1-yl)propyl)-1H-pyrazol-4-yl)-1,5-naphthyridine-2-amine]"

# Further lines, the compound ahead of its results:
Structure (SMILES),pIC50 [1],pIC50 [2]
COc1cc(-c2ccnc3ccc(Nc4nnc(C(C)C)s4)nc23)ccn1 [Example 0280],4.30 to 5.00,5.00 to 6.00
"CC(C)c1nnc(Nc2ccc3nccc(-c4ccccn4)c3n2)s1 [Example 0281, 5-isopropyl-N-(8-(pyridin-2-yl)-1,5-naphthyridin-2-yl)-1,3,4-thiadiazole-2-amine]",5.00 to 6.00,5.00 to 6.00
CC(C)c1nnc(Nc2ccc3nccc(-c4cnccn4)c3n2)s1 [Example 0282],5.00 to 6.00,5.00 to 6.00
CC(C)c1nnc(Nc2ccc3nccc(-c4ccnnc4)c3n2)s1 [Example 0283],> 6.00,> 6.00
CC(C)c1nnc(Nc2ccc3nccc(-c4cn[nH]c4)c3n2)s1 [Example 0284],> 6.00,5.00 to 6.00
CC(C)c1nnc(Nc2ccc3nccc(-c4ccn[nH]4)c3n2)s1 [Example 0285],> 6.00,> 6.00
"CC(C)c1nnc(Nc2ccc3nccc(N4CCOCC4)c3n2)s1 [Example 0286, 5-isopropyl-N-(8-morpholino-1,5-naphthyridin-2-yl)-1,3,4-thiadiazole-2-amine]",5.00 to 6.00,5.00 to 6.00
CC(C)c1nnc(Nc2ccc3nccc(-c4cccc(C(N)=O)c4)c3n2)s1 [Example 0287],> 6.00,> 6.00
CC(C)c1nnc(Nc2ccc3nccc(-c4ccc(C(N)=O)cc4)c3n2)s1 [Example 0288],> 6.00,> 6.00
"CC(C)c1nnc(Nc2ccc3nccc(-c4cc[nH]c(=O)c4)c3n2)s1 [Example 0289, 4-(6-((5-isopropyl-1,3,4-thiadiazol-2-yl)amino)-1,5-naphthyridin-4-yl)pyridin-2(1H)-one]",> 6.00,5.00 to 6.00
CCC(C)(C)c1cnnc(Nc2ccc3ncc(-c4cnn(CCCN5CCCC5)c4)cc3n2)c1 [Example 0296],> 6.00,> 6.00
"c1ccc(-c2cnnc(Nc3ccc4ncc(-c5cnn(CCCN6CCCC6)c5)cc4n3)c2)cc1 [Example 0297, N-(5-phenylpyridazin-3-yl)-7-(1-(3-(pyrrolidin-1-yl)propyl)-1H-pyrazol-4-yl)-1,5-naphthyridine-2-amine]",> 6.00,> 6.00
"CCCCCc1nnc(Nc2ccc3ncc(-c4cnn(C)c4)cc3n2)[nH]1 [Example 0299, 7-(1-methyl-1H-pyrazol-4-yl)-N-(5-pentyl-4H-1,2,4-triazol-3-yl)-1,5-naphthyridine-2-amine]",4.30 to 5.00,> 6.00
"Cn1cc(-c2cnc3ccc(Nc4nnc[nH]4)nc3c2)cn1 [Example 0300, 7-(1-Methyl-1H-pyrazol-4-yl)-N-(4H-1,2,4-triazol-3-yl)-1,5-naphthyridine-2-amine]",5.00 to 6.00,> 6.00
"CN(C)CCn1cc(-c2cnc3ccc(Nc4nnc(C5CCCC5)s4)nc3c2)cn1 [Example 0304, 5-Cyclopentyl-N-(7-(1-(2-(dimethylamino)ethyl)-1H-pyrazol-4-yl)-1,5-naphthyridin-2-yl)-1,3,4-thiadiazole-2-amine]",> 6.00,> 6.00
"c1nnc(Nc2ccc3ncc(-c4cnn(CCCN5CCNCC5)c4)cc3n2)s1 [Example 0305, N-(7-(1-(3-(piperazin-1-yl)propyl)-1H-pyrazol-4-yl)-1,5-naphthyridin-2-yl)-1,3,4-thiadiazole-2-amine hydrochloride]",> 6.00,> 6.00
"Cn1cc(-c2cc3nc(Nc4nncs4)ccc3nc2N)cn1 [Example 0306, 7-(1-methyl-1H-pyrazol-4-yl)-N^2-(1,3,4-thiadiazol-2-yl)-1,5-naphthyridine-2,6-diamine]",> 6.00,> 6.00
COCCCNc1cnc2ccc(Nc3nnc(C4CCCC4)s3)nc2c1 [Example 0307],> 6.00,> 6.00
COCCNc1cnc2ccc(Nc3nnc(C4CCCC4)s3)nc2c1 [Example 0308],5.00 to 6.00,> 6.00
COCCN(C)c1cnc2ccc(Nc3nnc(C4CCCC4)s3)nc2c1 [Example 0309],5.00 to 6.00,> 6.00
